Details: human, in vivo

CCOc1ccc(-c2cc(C)cn2-c2ccc(S(N)(=O)=O)cc2)cc1 [2-(4-ethoxyphenyl)-4-methyl-1-(4-sulfamoylphenyl)-pyrrole]
gastric or duodenal toxicity compared to placebo: no increase

Source: patent US20120015919A1, “THERAPIES FOR TREATING CANCER USING COMBINATIONS OF COX-2 INHIBITORS AND AROMATASE INHIBITORS OR COMBINATIONS OF COX-2 INHIBITORS AND ESTROGEN RECEPTOR ANTAGONISTS” (Tragara Pharmaceuticals, Inc., priority 2007, published 2012)
